T/C data for 23 molecules are collected here from PubChem BioAssay AID330 (DTP/NCI, 2004).

Values joined by “and” are separate entries in the source; they are usually repeats but may differ in a detail not shown here. Equal values may be shown once. Inconclusive results and toxic doses are left out.

The test system of the experiment is P388 leukemia ip, CD2F1 mice, survival T/C. Nature of the experiment: NCI In Vivo Anticancer Drug Screen. Data for tumor model P388 Leukemia (intraperitoneal) in CD2F1 (CDF1) mice. The settings on record: endpoint: median survival time, higher = longer survival. A digest of the protocol:
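Mice carrying the transplanted tumor received test compound or vehicle. Survival was recorded in each group, and the value is the treated-group measurement divided by that of the vehicle-treated control group.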

Setting [1] is: dose: 25.0 mg/kg/injection, schedule: Q01DX009 (ip), vehicle: saline with Tween-80.
Setting [2] is: dose: 50.0 mg/kg/injection, schedule: Q01DX009 (ip), vehicle: saline with Tween-80.
The mark [3] stands for this setting: dose: 100.0 mg/kg/injection, schedule: Q01DX009 (ip), vehicle: saline with Tween-80.
[4] abbreviates: dose: 200.0 mg/kg/injection, schedule: Q01DX009 (ip), vehicle: saline with Tween-80.
[5] abbreviates: dose: 50.0 mg/kg/injection, schedule: Q01DX005 (ip), vehicle: Klucel (hydroxypropylcellulose) (HPC).
Setting [6] is: dose: 100.0 mg/kg/injection, schedule: Q01DX001 (ip), vehicle: Klucel (hydroxypropylcellulose) (HPC).
The mark [7] stands for this setting: dose: 100.0 mg/kg/injection, schedule: Q01DX005 (ip), vehicle: Klucel (hydroxypropylcellulose) (HPC).
The mark [8] stands for this setting: dose: 200.0 mg/kg/injection, schedule: Q01DX001 (ip), vehicle: Klucel (hydroxypropylcellulose) (HPC).
The mark [9] stands for this setting: dose: 200.0 mg/kg/injection, schedule: Q01DX005 (ip), vehicle: Klucel (hydroxypropylcellulose) (HPC).
Setting [10] is: dose: 100.0 mg/kg/injection, schedule: Q04DX003 (ip), vehicle: saline with Tween-80.
Where [11] appears, read: dose: 200.0 mg/kg/injection, schedule: Q04DX003 (ip), vehicle: saline with Tween-80.
Setting [12] is: dose: 400.0 mg/kg/injection, schedule: Q04DX003 (ip), vehicle: saline with Tween-80.
Setting [13] is: dose: 50.0 mg/kg/injection, schedule: Q01DX009 (ip), vehicle: saline.

On to `COc1ccc2c(c1)CCCN2`, for which the T/C by setting is: under setting [1], 105 % of control and 108 % of control; under setting [2], 103 % of control and 108 % of control; under setting [3], 117 % of control.
Consider `CCOCC(COCC)(COCC)COCC`, for which the T/C is 110 % of control (dose: 12.5 mg/kg/injection, schedule: Q01DX009 (ip), vehicle: saline with Tween-80); 110 % of control under setting [1]; 119 % of control under setting [2].
On to `CN(C)Cc1c(N=Nc2ccc3ccc4cccc5ccc2c3c45)[nH]c2ccccc12`, for which the T/C runs as follows: under setting [2], 103 % of control; under setting [3], 115 % of control; under setting [4], 115 % of control.
For `NC(=S)N/N=C/c1ccncc1`, the T/C under setting [1] is 108 % of control, the T/C under setting [2] was 98 % of control, the T/C under setting [3] is 101 % of control and the T/C under setting [4] is 92 % of control.
As for `C[C@@H]1CN(c2ccccc2)C[C@H](C)OS(=O)O1` (stereo partly specified), the T/C by setting is: (dose: 50.0 mg/kg/injection, schedule: Q01DX001 (ip), vehicle: Klucel (hydroxypropylcellulose) (HPC)) 105 % of control; under setting [5], 96 % of control; under setting [6], 103 % of control; under setting [7], 100 % of control; under setting [8], 97 % of control; under setting [9], 93 % of control.
As to `c1cc2c3c(cccc3c1)NC(c1ccc3c(c1)OCO3)N2`, the T/C is 100 % of control under setting [5], 100 % of control under setting [7] and 95 % of control under setting [9].
For the molecule `Cc1cc(C)n(-c2ccc(N(CCO)CCO)nn2)n1`, the T/C is 93 % of control (dose: 75.0 mg/kg/injection, schedule: Q01DX005 (ip), vehicle: other); 88 % of control (dose: 150.0 mg/kg/injection, schedule: Q01DX005 (ip), vehicle: other); 103 % of control (dose: 250.0 mg/kg/injection, schedule: Q01DX005 (oral), vehicle: water); 93 % of control (dose: 300.0 mg/kg/injection, schedule: Q01DX005 (ip), vehicle: other); 116 % of control (dose: 500.0 mg/kg/injection, schedule: Q01DX005 (oral), vehicle: water); 99 % of control (dose: 1000.0 mg/kg/injection, schedule: Q01DX005 (oral), vehicle: water).
In the case of `CCCCCCCCCCCCCCCCC1(C)c2ccccc2N(C)C12C=Cc1cc([N+](=O)[O-])ccc1O2` (stereo unspecified), the T/C is, setting by setting: under setting [10], 103 % of control; under setting [11], 100 % of control; under setting [12], 100 % of control.
As to `OC1(C2(O)CCCC2)CCCC1`, the T/C reads like this: under setting [10], 100 % of control; under setting [11], 104 % of control; under setting [12], 95 % of control.
As to `CCCCOC1CCC2(C)C(=CCC3C2CCC2(C)C(C(C)CCCC(C)C)CCC32)C1` (stereo unspecified), the T/C runs as follows: (dose: 100.0 mg/kg/injection, schedule: Q04DX003 (sc), vehicle: steriod suspending solution) 104 % of control; (dose: 200.0 mg/kg/injection, schedule: Q04DX003 (sc), vehicle: steriod suspending solution) 100 % of control; (dose: 400.0 mg/kg/injection, schedule: Q04DX003 (sc), vehicle: steriod suspending solution) 100 % of control.
Turning to `CC1(C)CC2C=C(C=O)C3(C=O)CC3(C)C2C1` (stereo unspecified), the T/C was 96 % of control (dose: 0.78 mg/kg/injection, schedule: Q01DX009 (ip), vehicle: Klucel (hydroxypropylcellulose) (HPC)); 112 % of control (dose: 1.56 mg/kg/injection, schedule: Q01DX009 (ip), vehicle: Klucel (hydroxypropylcellulose) (HPC)); 111 % of control (dose: 3.12 mg/kg/injection, schedule: Q01DX009 (ip), vehicle: Klucel (hydroxypropylcellulose) (HPC)); 111 % of control (dose: 6.25 mg/kg/injection, schedule: Q01DX009 (ip), vehicle: Klucel (hydroxypropylcellulose) (HPC)).
With `O=C(Nc1ccc(F)cc1F)Oc1ccc2cc(Br)ccc2c1`, the T/C runs as follows: (dose: 50.0 mg/kg/injection, schedule: Q01DX009 (ip), vehicle: saline + alcohol) 97 % of control; (dose: 100.0 mg/kg/injection, schedule: Q01DX009 (ip), vehicle: saline + alcohol) 91 % of control; (dose: 200.0 mg/kg/injection, schedule: Q01DX009 (ip), vehicle: saline + alcohol) 100 % of control.
On to `OP12(OC(C(F)(F)F)(C(F)(F)F)c3ccccc31)OC(C(F)(F)F)(C(F)(F)F)c1ccccc12`, for which the T/C is, setting by setting: (dose: 100.0 mg/kg/injection, schedule: Q04DX002 (ip), vehicle: Klucel (hydroxypropylcellulose) (HPC)) 97 % of control; (dose: 200.0 mg/kg/injection, schedule: Q04DX002 (ip), vehicle: Klucel (hydroxypropylcellulose) (HPC)) 98 % of control.
On to `CCCOC(=O)c1nc(N(CC2CCCCC2)C(=O)NC)sc1/N=C/c1ccccc1`, for which the T/C runs as follows: under setting [1], 98 % of control; under setting [2], 94 % of control; under setting [3], 87 % of control.
Regarding `NC(=O)c1c[se]c(C2OC(CO)C(O)C2O)n1` (stereo unspecified), for the setting “dose: 25.0 mg/kg/injection, schedule: Q01DX005 (ip), vehicle: saline”, the T/C was 154 % of control.
As for `Cc1ccc(S(=O)(=O)NC(CN)C(=O)O)cc1` (stereo unspecified), the T/C runs as follows: (dose: 25.0 mg/kg/injection, schedule: Q01DX009 (ip), vehicle: other) 104 % of control; (dose: 50.0 mg/kg/injection, schedule: Q01DX009 (ip), vehicle: other) 101 % of control; (dose: 100.0 mg/kg/injection, schedule: Q01DX009 (ip), vehicle: other) 101 % of control; (dose: 200.0 mg/kg/injection, schedule: Q01DX009 (ip), vehicle: other) 107 % of control; (dose: 400.0 mg/kg/injection, schedule: Q01DX009 (ip), vehicle: other) 104 % of control.
Regarding `Cc1ccc(CCn2c3c(c4cc(Cl)ccc42)CN(C)CC3)cn1`, the T/C reads like this: under setting [13], 99 % of control; (dose: 100.0 mg/kg/injection, schedule: Q01DX009 (ip), vehicle: saline) 102 % of control.
In the case of `CCCCN1C(=O)C2C3C=CC(C2C1=O)C1C2C(=O)N(CCCC)C(=O)C2C31` (stereo unspecified), the T/C is 93 % of control (dose: 100.0 mg/kg/injection, schedule: Q01DX001 (ip), vehicle: saline with Tween-80); 93 % of control (dose: 200.0 mg/kg/injection, schedule: Q01DX001 (ip), vehicle: saline with Tween-80); 90 % of control (dose: 400.0 mg/kg/injection, schedule: Q01DX001 (ip), vehicle: saline with Tween-80).
Turning to `CC1(C)N=C(N)N=C(N)N1c1ccc(OCCNS(=O)(=O)c2cccc(S(=O)(=O)F)c2)c(Cl)c1`, the T/C runs as follows: (dose: 12.5 mg/kg/injection, schedule: Q01DX009 (ip), vehicle: saline) 152 % of control; (dose: 25.0 mg/kg/injection, schedule: Q01DX009 (ip), vehicle: saline) 157 % of control; under setting [13], 168 % of control; under setting [3], 154 % of control.
Consider `c1ccc2c(c1)Cc1nc3ccccc3nc1-2`, for which the T/C is 100 % of control under setting [3]; 95 % of control under setting [4]; 100 % of control (dose: 400.0 mg/kg/injection, schedule: Q01DX009 (ip), vehicle: saline with Tween-80).
`CCOc1c(N=Nc2ccc(OC)cc2)c(-c2ccccc2)nn1C(=S)S`: the T/C is 102 % of control (dose: 50.0 mg/kg/injection, schedule: Q01DX005 (ip), vehicle: saline with Tween-80); 103 % of control (dose: 100.0 mg/kg/injection, schedule: Q01DX005 (ip), vehicle: saline with Tween-80); 102 % of control (dose: 200.0 mg/kg/injection, schedule: Q01DX005 (ip), vehicle: saline with Tween-80).
Take `O=C1c2c(O)cc(O)cc2OC(c2ccc(O)cc2)C1O` (stereo unspecified): the T/C was 100 % of control (dose: 9.75 mg/kg/injection, schedule: Q01DX009 (ip), vehicle: saline); 101 % of control (dose: 19.5 mg/kg/injection, schedule: Q01DX009 (ip), vehicle: saline); 102 % of control (dose: 39.0 mg/kg/injection, schedule: Q01DX009 (ip), vehicle: saline).
In the case of `Cc1onc(-c2ccccc2)c1C(C)(O)c1ccccc1` (stereo unspecified), the T/C is 90 % of control under setting [6]; 93 % of control under setting [8]; 88 % of control (dose: 400.0 mg/kg/injection, schedule: Q01DX001 (ip), vehicle: Klucel (hydroxypropylcellulose) (HPC)).
